Columns and labels:
Assay in all cases: relative viability vs DMSO control (72 h) (fraction); higher = more viable cells
SK-ES-1 = test system: SK-ES-1
Procedure, shortened: (§1)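 Relative viability was measured with ATPLite and expressed as percent growth, averaged across up to triplicate wells. Sarcoma cell lines had been seeded in 384-well plates to reach 80–90% confluence, dosed after 24 h, and incubated 72 h at 37 °C, 5% CO2. All data were rescaled on a scale where 1 is full and 0 is none.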

SW684 = test system: SW684
Procedure, shortened: as §1

HS729 = test system: HS729
Procedure, shortened: as §1

VA-ES-BJ = test system: VA-ES-BJ
Procedure, shortened: as §1

KHOS-NP = test system: KHOS-NP
Procedure, shortened: as §1

A204 = test system: A204
Procedure, shortened: as §1

SW872 = test system: SW872
Procedure, shortened: as §1

SK-LMS-1 = test system: SK-LMS-1
Procedure, shortened: as §1

SYO-1 = test system: SYO-1
Procedure, shortened: as §1

MES-SA = test system: MES-SA
Procedure, shortened: as §1

RD = test system: RD
Procedure, shortened: as §1

G401 = test system: G401
Procedure, shortened: as §1

CC#CC(=O)N1CCC[C@H]1c1nc(-c2ccc(C(=O)Nc3ccccn3)cc2)c2c(N)nccn12 [Acalabrutinib]
Conditions | relative viability
A204, 0.00017 µM | 1.07
A204, 0.00051 µM | 1.07
A204, 0.00152 µM | 1.06
A204, 0.00457 µM | 1.09
A204, 0.01372 µM | 1.1
A204, 0.04115 µM | 1.09
A204, 0.1235 µM | 1.07
A204, 0.3704 µM | 1.05
A204, 1.111 µM | 1.05
A204, 3.333 µM | 1.02
A204, 10 µM | 0.872
G401, 0.00017 µM | 0.98
G401, 0.00051 µM | 0.991
G401, 0.00152 µM | 0.997
G401, 0.00457 µM | 1.02
G401, 0.01372 µM | 1.01
G401, 0.04115 µM | 1.01
G401, 0.1235 µM | 0.985
G401, 0.3704 µM | 0.996
G401, 1.111 µM | 1.02
G401, 3.333 µM | 0.997
G401, 10 µM | 0.917
HS729, 0.00017 µM | 0.88
HS729, 0.00051 µM | 0.865
HS729, 0.00152 µM | 0.903
HS729, 0.00457 µM | 0.941
HS729, 0.01372 µM | 0.866
HS729, 0.04115 µM | 0.877
HS729, 0.1235 µM | 0.894
HS729, 0.3704 µM | 0.868
HS729, 1.111 µM | 0.889
HS729, 3.333 µM | 0.88
HS729, 10 µM | 0.95
KHOS-NP, 0.00017 µM | 1.03
KHOS-NP, 0.00051 µM | 1.03
KHOS-NP, 0.00152 µM | 1.04
KHOS-NP, 0.00457 µM | 1.04
KHOS-NP, 0.01372 µM | 1.02
KHOS-NP, 0.04115 µM | 1.03
KHOS-NP, 0.1235 µM | 1.03
KHOS-NP, 0.3704 µM | 1.05
KHOS-NP, 1.111 µM | 1.04
KHOS-NP, 3.333 µM | 1.08
KHOS-NP, 10 µM | 1.08
MES-SA, 0.00017 µM | 0.914
MES-SA, 0.00051 µM | 0.905
MES-SA, 0.00152 µM | 0.937
MES-SA, 0.00457 µM | 0.914
MES-SA, 0.01372 µM | 0.908
MES-SA, 0.04115 µM | 0.909
MES-SA, 0.1235 µM | 0.912
MES-SA, 0.3704 µM | 0.926
MES-SA, 1.111 µM | 0.909
MES-SA, 3.333 µM | 0.914
MES-SA, 10 µM | 0.907
RD, 0.00017 µM | 1.13
RD, 0.00051 µM | 1.13
RD, 0.00152 µM | 1.12
RD, 0.00457 µM | 1.15
RD, 0.01372 µM | 1.13
RD, 0.04115 µM | 1.09
RD, 0.1235 µM | 1.06
RD, 0.3704 µM | 1.06
RD, 1.111 µM | 1.09
RD, 3.333 µM | 1.13
RD, 10 µM | 1.07
SK-ES-1, 0.00017 µM | 0.978
SK-ES-1, 0.00051 µM | 0.989
SK-ES-1, 0.00152 µM | 1.04
SK-ES-1, 0.00457 µM | 1.03
SK-ES-1, 0.01372 µM | 0.996
SK-ES-1, 0.04115 µM | 0.998
SK-ES-1, 0.1235 µM | 0.999
SK-ES-1, 0.3704 µM | 1.02
SK-ES-1, 1.111 µM | 1.012
SK-ES-1, 3.333 µM | 1.02
SK-ES-1, 10 µM | 0.983
SK-LMS-1, 0.00017 µM | 1
SK-LMS-1, 0.00051 µM | 1.01
SK-LMS-1, 0.00152 µM | 1.03
SK-LMS-1, 0.00457 µM | 1.04
SK-LMS-1, 0.01372 µM | 1.04
SK-LMS-1, 0.04115 µM | 1
SK-LMS-1, 0.1235 µM | 1.03
SK-LMS-1, 0.3704 µM | 1.04
SK-LMS-1, 1.111 µM | 1.06
SK-LMS-1, 3.333 µM | 1.03
SK-LMS-1, 10 µM | 0.944
SW684, 0.00017 µM | 1.11
SW684, 0.00051 µM | 1.14
SW684, 0.00152 µM | 1.09
SW684, 0.00457 µM | 1.13
SW684, 0.01372 µM | 1.13
SW684, 0.04115 µM | 1.1
SW684, 0.1235 µM | 1.11
SW684, 0.3704 µM | 1.15
SW684, 1.111 µM | 1.14
SW684, 3.333 µM | 1.12
SW684, 10 µM | 1.08
SW872, 0.00017 µM | 0.999
SW872, 0.00051 µM | 1.02
SW872, 0.00152 µM | 1.01
SW872, 0.00457 µM | 1.01
SW872, 0.01372 µM | 0.975
SW872, 0.04115 µM | 0.95
SW872, 0.1235 µM | 0.979
SW872, 0.3704 µM | 0.997
SW872, 1.111 µM | 1.04
SW872, 3.333 µM | 1.03
SW872, 10 µM | 0.987
SYO-1, 0.00017 µM | 0.958
SYO-1, 0.00051 µM | 0.946
SYO-1, 0.00152 µM | 0.941
SYO-1, 0.00457 µM | 0.937
SYO-1, 0.01372 µM | 0.945
SYO-1, 0.04115 µM | 0.932
SYO-1, 0.1235 µM | 0.94
SYO-1, 0.3704 µM | 0.934
SYO-1, 1.111 µM | 0.928
SYO-1, 3.333 µM | 0.948
SYO-1, 10 µM | 0.898
VA-ES-BJ, 0.00017 µM | 1.01
VA-ES-BJ, 0.00051 µM | 1.01
VA-ES-BJ, 0.00152 µM | 1.03
VA-ES-BJ, 0.00457 µM | 1.04
VA-ES-BJ, 0.01372 µM | 1.01
VA-ES-BJ, 0.04115 µM | 1.01
VA-ES-BJ, 0.1235 µM | 1
VA-ES-BJ, 0.3704 µM | 1.05
VA-ES-BJ, 1.111 µM | 1.08
VA-ES-BJ, 3.333 µM | 1.07
VA-ES-BJ, 10 µM | 1.05

Reference: the supplement of paper PMC10883282
